From US8618107B2 (Gilead Connecticut, Inc., priority 2010, dated 2013)

Experiments:
[1] = system: CD86 surface expression on CD19+/7AAD- mouse splenocytes stimulated with IgM; test: CD86 Inhibition Assay; type: cell-based; settings: Splenocyte; total mouse splenocytes (Balb/c), IgM stimulation 24 hr
Protocol: Following the 24 hr incubation, cells are transferred to conical bottom clear 96-well plates and pelleted by centrifugation at 1200×g×5 min. […] Cells are sorted on a BD FACSCalibur and gated on the CD19^+/7AAD^− population. The levels of CD86 surface expression on the gated population is measured versus test compound concentration.

[2] = target: Btk (Homo sapiens (Human), UniProt Q06187); test: standard biochemical Btk Kinase Assay (Example 901)
Sequence of Btk (Q06187 whole entry): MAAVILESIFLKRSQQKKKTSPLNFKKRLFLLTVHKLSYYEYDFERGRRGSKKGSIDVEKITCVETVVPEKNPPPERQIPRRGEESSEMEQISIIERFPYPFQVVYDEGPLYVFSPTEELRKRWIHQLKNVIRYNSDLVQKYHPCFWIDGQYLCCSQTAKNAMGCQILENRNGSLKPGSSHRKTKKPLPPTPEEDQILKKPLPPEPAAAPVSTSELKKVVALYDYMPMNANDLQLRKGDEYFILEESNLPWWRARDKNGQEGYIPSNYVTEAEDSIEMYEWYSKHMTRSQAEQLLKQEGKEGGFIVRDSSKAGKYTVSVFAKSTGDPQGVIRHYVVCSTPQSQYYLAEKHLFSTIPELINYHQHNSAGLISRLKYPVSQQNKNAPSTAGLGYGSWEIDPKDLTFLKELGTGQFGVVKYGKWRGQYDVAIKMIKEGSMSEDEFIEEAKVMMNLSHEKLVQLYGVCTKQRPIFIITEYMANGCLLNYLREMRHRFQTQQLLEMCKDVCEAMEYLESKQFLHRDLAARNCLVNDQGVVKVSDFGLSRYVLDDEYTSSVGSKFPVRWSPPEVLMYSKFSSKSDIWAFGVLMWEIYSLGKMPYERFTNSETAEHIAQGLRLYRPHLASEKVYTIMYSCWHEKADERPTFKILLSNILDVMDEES
Description: Determination of IC50 values can be accomplished using conventional techniques known in the art. In general, an IC50 can be determined by measuring the activity of a given enzyme in the presence of a range of concentrations of the inhibitor under study. The experimentally obtained values of enzyme activity then are plotted against the inhibitor concentrations used. […] Analogously, other inhibitory concentrations can be defined through appropriate determinations of activity.

Row | EC50 [1] | SMILES | further results
1 | 16 nM | Cn1cc(-c2cccc(N3CCn4c(cc5c4CCCC5)C3=O)c2CO)cc(Nc2cc3n(n2)CCN(C2COC2)C3)c1=O [Example 319, 2-(2-(Hydroxymethyl)-3-(1-methyl-5-(5-(oxetan-3-yl)-4,5,6,7-tetrahydropyrazolo[1,5-a]pyrazin-2-ylamino)-6-oxo-1,6-dihydropyridin-3-yl)phenyl)-3,4,6,7,8,9-hexahydropyrazino[1,2-a]indol-1(2H)-one] | 
2 | 10 nM | Cn1cc(-c2cc(F)cc(N3CCn4c(cc5c4CCCC5)C3=O)c2CO)cc(Nc2ccc(N3CCN(C4COC4)CC3)cn2)c1=O [Example 210, 2-(5-fluoro-2-(hydroxymethyl)-3-(1-methyl-5-(5-(4-(oxetan-3-yl)piperazin-1-yl)pyridin-2-ylamino)-6-oxo-1,6-dihydropyridin-3-yl)phenyl)-3,4,6,7,8,9-hexahydropyrazino[1,2-a]indol-1(2H)-one] | 
3 | 22 nM | Cn1cc(-c2cccc(N3CCn4c(cc5c4CCCC5)C3=O)c2CO)cc(Nc2cc3n(n2)CCOC3)c1=O [Example 110, 2-(3-(5-(6,7-dihydro-4H-pyrazolo[5,1-c][1,4]oxazin-2-ylamino)-1-methyl-6-oxo-1,6-dihydropyridin-3-yl)-2-(hydroxymethyl)phenyl)-3,4,6,7,8,9-hexahydropyrazino[1,2-a]indol-1(2H)-one] | IC50 ([2]; Table 1): 7.7 nM
4 | 188 nM | Cn1cc(-c2cccc(N3CCn4c(cc5c4CCCC5)C3=O)c2CO)nc(Nc2cnn(C3CC3)c2)c1=O [Example 114, 2-(3-(6-(1-cyclopropyl-1H-pyrazol-4-ylamino)-4-methyl-5-oxo-4,5-dihydropyrazin-2-yl)-2-(hydroxymethyl)phenyl)-3,4,6,7,8,9-hexahydropyrazino[1,2-a]indol-1(2H)-one] | 
5 | 44 nM | CN(Cc1cc(Nc2cc(-c3cc(F)cc(N4CCn5c(cc6c5CC(C)(C)C6)C4=O)c3CO)cn(C)c2=O)nn1C)C1COC1 [Example 321, 10-[5-Fluoro-2-(Hydroxymethyl)-3-{1-methyl-5-[(1-methyl-5-{[methyl(oxetan-3-yl)amino]methyl}-1H-pyrazol-3-yl)amino]-6-oxo-1,6-dihydropyridin-3-yl}phenyl]-4,4-dimethyl-1,10-diazatricyclo[6.4.0.0^2,6]dodeca-2(6),7-dien-9-one] | 
6 | 9 nM | Cn1cc(-c2cc(F)cc(N3CCc4c(sc5c4CCCC5)C3=O)c2CO)cc(Nc2ccc(N3CCN(C4COC4)CC3)cn2)c1=O [Example 211, 5-[5-Fluoro-2-(hydroxymethyl)-3-[1-methyl-5-({5-[4-(oxetan-3-yl)piperazin-1-yl]pyridin-2-yl}amino)-6-oxo-1,6-dihydropyridin-3-yl]phenyl]-8-thia-5-azatricyclo[7.4.0.0^2,7]trideca-1(9),2(7)-dien-6-one] | 
7 | 78 nM | Cn1cc(-c2cc(F)cc(N3CCc4c(sc5c4CCCC5)C3=O)c2CO)cc(Nc2ccncn2)c1=O [Example 115, 5-[5-Fluoro-2-(hydroxymethyl)-3-[1-methyl-6-oxo-5-(pyrimidin-4-ylamino)-1,6-dihydropyridin-3-yl]phenyl]-8-thia-5-azatricyclo[7.4.0.02,7]trideca-1(9),2(7)-dien-6-one] | 
8 | 18 nM | Cn1cc(-c2cc(F)cc(N3CCc4c(sc5c4CC(C)(C)C5)C3=O)c2CO)cc(Nc2cc3n(n2)CCN(C2COC2)C3)c1=O [Example 318, 10-[5-Fluoro-2-(hydroxymethyl)-3-(1-methyl-5-{[5-(oxetan-3-yl)-4H,5H,6H,7H-pyrazolo[1,5-a]pyrazin-2-yl]amino}-6-oxo-1,6-dihydropyridin-3-yl)phenyl]-4,4-dimethyl-7-thia-10-azatricyclo[6.4.0.0^2,6]dodeca-1(8),2(6)-dien-9-one] | 
9 |  | Cn1cc(-c2cc(F)cc(N3CCn4c(cc5c4CC(C)(C)C5)C3=O)c2CO)cc(Nc2ccc(N3CCN(C4COC4)CC3)cn2)c1=O [Example 304, 10-[5-Fluoro-2-(hydroxymethyl)-3-[1-methyl-5-({5-[4-(oxetan-3-yl)piperazin-1-yl]pyridine-2-yl}amino)-6-oxo-1,6-dihydropyridin-3-yl]phenyl]-4,4-dimethyl-1,10-diazatricyclo[6.4.0.0^2,6]dodeca-2(6),7-dien-9-one] | IC50 ([2]; Table 2): 7.8 nM
10 |  | Cn1nc(Nc2cc(-c3cccc(N4CCc5c(sc6c5CCCC6)C4=O)c3CO)nn(C)c2=O)cc1C(C)(C)O [Example 119, 5-[2-(hydroxymethyl)-3-(5-{[5-(2-hydroxypropan-2-yl)-1-methyl-1H-pyrazol-3-yl]amino}-1-methyl-6-oxo-1,6-dihydropyridazin-3-yl)phenyl]-8-thia-5-azatricyclo[7.4.0.02,7]trideca-1(9),2(7)-dien-6-one] | IC50 ([2]; Table 1): 7 nM
11 |  | Cn1cc(-c2cccc(N3CCn4c(cc5c4CCCC5)C3=O)c2CO)cc(Nc2ccc(N3CCNCC3)cn2)c1=O [Example 301, 2-(2-(Hydroxymethyl)-3-(1-methyl-6-oxo-5-(5-(piperazin-1-yl)pyridin-2-ylamino)-1,6-dihydropyridin-3-yl)phenyl)-3,4,6,7,8,9-hexahydropyrazino[1,2-a]indol-1(2H)-one] | IC50 ([2]; Table 2): 6.1 nM
12 |  | Cn1cc(-c2cc(F)cc(N3CCn4c(cc5c4CC(C)(C)C5)C3=O)c2CO)cc(Nc2ccc(CN3CCOCC3)cn2)c1=O [Example 274, 10-[5-Fluoro-2-(hydroxymethyl)-3-(1-methyl-5-{[5-(morpholin-4-ylmethyl)pyridine-2-yl]amino}-6-oxo-1,6-dihydropyridin-3-yl)phenyl]-4,4-dimethyl-1,10-diazatricyclo[6.4.0.0^2,6]dodeca-2(6),7-dien-9-one] | IC50 ([2]; Table 2): 2.34 nM
13 | 30 nM | Cn1cc(-c2cccc(N3CCn4c(cc5c4CC(C)(C)C5)C3=O)c2CO)cc(Nc2ccc(N3CCN(C4COC4)CC3)cn2)c1=O [Example 311, 10-[2-(Hydroxymethyl)-3-[1-methyl-5-({5-[4-(oxetan-3-yl)piperazin-1-yl]pyridine-2-yl}amino)-6-oxo-1,6-dihydropyridin-3-yl]phenyl]-4,4-dimethyl-1,10-diazatricyclo[6.4.0.0^2,6]dodeca-2(6),7-dien-9-one] | 
14 | 10 nM | CN1CCC[C@H]1c1ccc(Nc2cc(-c3cc(F)cc(N4CCn5c(cc6c5CC(C)(C)C6)C4=O)c3CO)cn(C)c2=O)nc1 [Example 290, 10-[5-Fluoro-2-(hydroxymethyl)-3-[1-methyl-5-({5-[(2S)-1-methylpyrrolidin-2-yl]pyridine-2-yl}amino)-6-oxo-1,6-dihydropyridin-3-yl]phenyl]-4,4-dimethyl-1,10-diazatricyclo[6.4.0.0^2,6]dodeca-2(6),7-dien-9-one] | 
15 |  | CN1CC(Oc2ccc(Nc3cc(-c4cc(F)cc(N5CCn6c(cc7c6CCCC7)C5=O)c4CO)cn(C)c3=O)nc2)C1 [Example 293, 2-(5-Fluoro-2-(hydroxymethyl)-3-(1-methyl-5-(5-(1-methylazetidin-3-yloxy)pyridin-2-ylamino)-6-oxo-1,6-dihydropyridin-3-yl)phenyl)-3,4,6,7,8,9-hexahydropyrazino[1,2-a]indol-1(2H)-one] | IC50 ([2]; Table 2): 9.8 nM
16 |  | Cn1cc(-c2cccc(N3CCn4c(cc5c4CCCC5)C3=O)c2CO)cc(Nc2cc(C3CC3)[nH]n2)c1=O [Example 106, 2-(3-(5-(5-cyclopropyl-1H-pyrazol-3-ylamino)-1-methyl-6-oxo-1,6-dihydropyridin-3-yl)-2-(hydroxymethyl)phenyl)-3,4,6,7,8,9-hexahydropyrazino[1,2-a]indol-1(2H)-one] | IC50 ([2]; Table 1): 1 nM

Row | SMILES | EC50 [1] | further results
17 | CN1CCC(c2ccc(Nc3cc(-c4cc(F)cc(N5CCc6c(sc7c6CCCC7)C5=O)c4CO)cn(C)c3=O)nc2)C1 (stereo not drawn) [Example 308, 5-[5-Fluoro-2-(Hydroxymethyl)-3-(1-methyl-5-{[5-(1-methylpyrrolidin-3-yl)pyridine-2-yl]amino}-6-oxo-1,6-dihydropyridin-3-yl)phenyl]-8-thia-5-azatricyclo-[7.4.0.0^2,7]trideca-1(9),2(7)-dien-6-one] | 63 nM | 
18 | CN(C)CCOc1ccc(Nc2cc(-c3cc(F)cc(N4CCc5c(sc6c5CC(C)(C)C6)C4=O)c3CO)cn(C)c2=O)nc1 [Example 296, 10-{3-[5-({5-[2-(Dimethylamino)ethoxy]pyridin-2-yl}amino)-1-methyl-6-oxo-1,6-dihydropyridin-3-yl]-5-fluoro-2-(hydroxymethyl)phenyl}-4,4-dimethyl-7-thia-10-azatricyclo[6.4.0.0^2,6]dodeca-1(8),2(6)-dien-9-one] | 1 nM | 
19 | Cn1cc(-c2cc(F)cc(N3CCc4c(sc5c4CCCC5)C3=O)c2CO)cc(Nc2ccc(N3CCOCC3)cn2)c1=O [Example 289, 2-(5-Fluoro-2-(hydroxymethyl)-3-(1-methyl-5-(5-morpholinopyridin-2-ylamino)-6-oxo-1,6-dihydropyridin-3-yl)phenyl)-3,4,5,6,7,8-hexahydrobenzothieno[2,3-c]pyridin-1(2H)-one] | 10 nM | 
20 | Cn1cc(-c2cc(F)cc(N3CCc4c(sc5c4CC(C)(C)C5)C3=O)c2CO)cc(Nc2ccc(C3CCN(C4COC4)CC3)cn2)c1=O [Example 299, 10-[5-Fluoro-2-(hydroxymethyl)-3-[1-methyl-5-({5-[1-(oxetan-3-yl)piperidin-4-yl]pyridine-2-yl}amino)-6-oxo-1,6-dihydropyridin-3-yl]phenyl]-4,4-dimethyl-7-thia-10-azatricyclo[6.4.0.0^2,6]dodeca-1(8),2(6)-dien-9-one] | 9 nM | 
21 | COc1nccc(Nc2cc(-c3cc(F)cc(N4CCn5c(cc6c5CC(C)(C)C6)C4=O)c3CO)cn(C)c2=O)n1 [Example 300] | 9 nM | 
22 | CN1CCN(c2ccc(Nc3cc(-c4cc(F)cc(N5CCc6c(sc7c6CCCC7)C5=O)c4CO)cn(C)c3=O)nc2)CC1 [Example 212, 5-[5-Fluoro-2-(hydroxymethyl)-3-(1-methyl-5-{[5-(4-methylpiperazin-1-yl)pyridine-2-yl]amino}-6-oxo-1,6-dihydropyridin-3-yl)phenyl]-8-thia-5-azatricyclo[7.4.0.0^2,7]trideca-1(9),2(7)-dien-6-one] | 9 nM | 
23 | CC(C)N(C)Cc1ccc(Nc2cc(-c3cc(F)cc(N4CCc5c(sc6c5CCCC6)C4=O)c3CO)cn(C)c2=O)nc1 [Example 277, 5-[5-Fluoro-2-(hydroxymethyl)-3-{1-methyl-5-[(5-{[methyl(propan-2-yl)amino]methyl}pyridine-2-yl)amino]-6-oxo-1,6-dihydropyridin-3-yl}phenyl]-8-thia-5-azatricyclo[7.4.0.0^2,7]trideca-1(9),2(7)-dien-6-one] | 28 nM | 
